This passage reports Dmax and DC50 results from patent US20260092061A1, “COMPOUNDS FOR TARGETED PROTEIN DEGRADATION” (Amphista Therapeutics Limited, priority 2022, published 2026).

The experiment concerns the target T1, BRD9 (Homo sapiens, UniProt Q9H8M2).
T1 sequence (Q9H8M2 1-597): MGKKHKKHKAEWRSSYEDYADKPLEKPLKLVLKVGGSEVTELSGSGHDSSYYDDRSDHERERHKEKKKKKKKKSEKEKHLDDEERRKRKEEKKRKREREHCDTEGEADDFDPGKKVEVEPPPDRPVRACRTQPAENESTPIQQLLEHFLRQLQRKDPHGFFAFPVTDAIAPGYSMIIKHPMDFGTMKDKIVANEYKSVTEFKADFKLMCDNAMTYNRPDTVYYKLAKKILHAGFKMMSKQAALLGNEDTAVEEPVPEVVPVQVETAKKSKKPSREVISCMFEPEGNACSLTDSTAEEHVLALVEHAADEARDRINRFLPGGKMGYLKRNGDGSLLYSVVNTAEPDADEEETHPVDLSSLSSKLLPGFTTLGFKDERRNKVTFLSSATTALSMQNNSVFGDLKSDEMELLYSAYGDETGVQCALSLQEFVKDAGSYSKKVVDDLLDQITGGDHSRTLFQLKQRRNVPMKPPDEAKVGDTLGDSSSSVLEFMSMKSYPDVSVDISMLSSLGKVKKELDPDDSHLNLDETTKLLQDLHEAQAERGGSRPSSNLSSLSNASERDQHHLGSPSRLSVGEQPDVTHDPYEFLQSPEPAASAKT
The experiment in a line: Degradation of BRD9 (IF), immunofluorescence in MV4-11 cells, 24 hours (Assay Protocol 2). Set-up: A suspension of MV4-11 cells (ATCC CRL-9591) was prepared; host or cells: MV4-11. The format is cell-based. The note with it: BRD9 degradation. The procedure: Assay Protocol 2—Degradation of BRD9 (IF)
A suspension of MV4-11 cells (ATCC CRL-9591) was prepared in phenol red-free assay media (IMDM Thermo Scientific 21056023+10% FBS ATCC 302025) and cells were seeded at 20,000 cells per well (45 μL) in sterile black poly-d-lysine coated 384 well plates (Greiner 781948). Compounds were prepared at 1000× final concentration in DMSO, diluted 1:100 in assay media, and 5 μL compound was added to each well of the cell plate. Cells were incubated for 24 hours at 37° C. with 5% CO2. All the following incubations for immunofluorescence staining were at room temperature. 15 μL of 16% PFA was added to each well (3.7% final concentration) and the cells were fixed for 15 min then washed twice with DPBS. Cells were permeabilised with 0.1% Triton X-100 for 10 min, Triton X-100 was removed, then blocked with 1% BSA in DPBS for 1 hour. Cells were stained with 25 μL anti-BRD9 E4Q3F antibody (CST 48306) diluted 1:25600 in 1% BSA in DPBS for 2-3 hours. Wels were washed twice with DPBS then incubated with 25 μL of 1% BSA containing a 1:1000 dilution of Anti-rabbit Alexa Fluor™ 647 secondary antibody (Thero Scientific A21244) and 1 μg/mL Hoechst nuclear counter stain (Abcam ab228551) for 1 hour. Wells were washed twice with DPBS prior to imaging on a Perkin Elmer Operetta CLS with 10× air lens. Images were processed using Harmony High-Content Imaging and Analysis Software (Perkin Elmer) and the mean contrast ratio of Alexa Fluor™ 647 in central nuclei was used to quantify BRD9 protein levels. Data was further analysed using Dotmatics software and % BRD9 remaining was calculated by normalisation to average data from high and low control wells (cells treated with DMSO or 100 nM CFT-8634 respectively).

The mark [1] stands for this setting: Assay protocol 2, read-out: DC50.
Where [2] appears, read: MV4-11, Assay protocol 2, read-out: Dmax.

Read-outs that look alike come from different tables or passages of the source. Bounds are passed on as bounds.

Regarding `COc1cc(-c2cn(C)c(=O)c(C)c2C)cc(OC)c1CN1C2CC1CN(C(=O)/C(C#N)=C/c1cc(C)on1)C2` (mixture of isomers) [BRD9y, (E/Z)-2-(6-(2,6-dimethoxy-4-(1,4,5-trimethyl-6-oxo-1,6-dihydropyridin-3-yl)benzyl)-3,6-diazabicyclo[3.1.1]heptane-3-carbonyl)-3-(5-methylisoxazol-3-yl)acrylonitrile], under “MV4-11, Table 4, determined according to Assay Protocol 2, read-out: Dmax^2”, the Dmax (in general, the greatest extent of degradation seen) fell in the range of 30 to 50%. Besides, the DC50 (in general, the concentration at which degradation of the target reaches its halfway point) (Table 4, determined according to Assay Protocol 2, read-out: DC50^2) was less than 25 nM.
Consider `COc1cc(-c2cn(C)c(=O)c(C)c2C)cc(OC)c1CN1CCC(Oc2cccc(C3CCCN3C(=O)/C(C#N)=C/C(C)(C)C)c2)CC1` (mixture of isomers) [Compound B48, (E/Z)-2-(2-(3-((1-(2,6-dimethoxy-4-(1,4,5-trimethyl-6-oxo-1,6-dihydropyridin-3-yl)benzyl)piperidin-4-yl)oxy)phenyl)pyrrolidine-1-carbonyl)-4,4-dimethylpent-2-enenitrile], for which the 50% degradation concentration (DC50) under setting [1] lay within 1.25 to 10 nM. In addition, the Dmax under setting [2] was more than 75%.
On the same counts, the results for `COc1cc(-c2cn(C)c(=O)c(C)c2C)cc(OC)c1CN1CCN(Cc2cccc3c2CCN(C(=O)/C(C#N)=C/c2cccc(Br)n2)C3C)CC12CC2` (mixture of isomers) [Compound B61, (E/Z)-3-(6-bromopyridin-2-yl)-2-(5-((4-(2,6-dimethoxy-4-(1,4,5-trimethyl-6-oxo-1,6-dihydropyridin-3-yl)benzyl)-4,7-diazaspiro[2.5]octan-7-yl)methyl)-1-methyl-1,2,3,4-tetrahydroisoquinoline-2-carbonyl)acrylonitrile] are 1.25 to 10 nM and more than 75%.
Regarding `COc1cc(-c2cn(C)c(=O)c(C)c2C)cc(OC)c1CN1CC(Oc2cccc(C3CCCN3C(=O)/C(C#N)=C/C(C)(C)C)c2)C1` (mixture of isomers) [Compound B62, (E/Z)-2-(2-(3-((1-(2,6-dimethoxy-4-(1,4,5-trimethyl-6-oxo-1,6-dihydropyridin-3-yl)benzyl)azetidin-3-yl)oxy)phenyl)pyrrolidine-1-carbonyl)-4,4-dimethylpent-2-enenitrile], the DC50 under setting [1] was 1.25 to 10 nM. Moreover, the greatest degradation seen (Dmax) under setting [2] is more than 75%.
Regarding `COc1cc(-c2cn(C)c(=O)c(C)c2C)cc(OC)c1CN1CCC(Oc2cccc3c2CCN(C(=O)/C(C#N)=C/c2ccc(C(F)(F)F)cn2)C3C)CC1` (mixture of isomers) [Compound B64, (E/Z)-2-(5-((1-(2,6-dimethoxy-4-(1,4,5-trimethyl-6-oxo-1,6-dihydropyridin-3-yl)benzyl)piperidin-4-yl)oxy)-1-methyl-1,2,3,4-tetrahydroisoquinoline-2-carbonyl)-3-(5-(trifluoromethyl)pyridin-2-yl)acrylonitrile], the DC50 under setting [1] is less than 1.25 nM. The Dmax under setting [2] is more than 75%.
As for `COc1cc(-c2cn(C)c(=O)c(C)c2C)cc(OC)c1C(=O)N1CCCN(Cc2cccc3c2CCN(C(=O)/C(C#N)=C/C(C)(C)C)C3C)CC1` (mixture of isomers) [Compound B65, (E/Z)-2-(5-((4-(2,6-dimethoxy-4-(1,4,5-trimethyl-6-oxo-1,6-dihydropyridin-3-yl)benzoyl)-1,4-diazepan-1-yl)methyl)-1-methyl-1,2,3,4-tetrahydroisoquinoline-2-carbonyl)-4,4-dimethylpent-2-enenitrile], under setting [1], the DC50 is 1.25 to 10 nM. The Dmax under setting [2] was more than 75%.
For the molecule `COc1cc(-c2cn(C)c(=O)c(C)c2C)cc(OC)c1CN1CC[C@H](Oc2cccc(C3CCCN3C(=O)/C(C#N)=C/C(C)(C)C)c2)C1` (mixture of isomers) [Compound B67, (E/Z)-2-(2-(3-(((S)-1-(2,6-dimethoxy-4-(1,4,5-trimethyl-6-oxo-1,6-dihydropyridin-3-yl)benzyl)417yrrolidine-3-yl)oxy)phenyl)pyrrolidine-1-carbonyl)-4,4-dimethylpent-2-enenitrile], under setting [1], the DC50 lay in the range of 1.25 to 10 nM. Also, the Dmax under setting [2] is more than 75%.
